Laboratory results as given in patent US4487776A, “Azolyl-phenoxy-tetrahydrofuran-2-ylidene-methanes, a process for their preparation, and antimicrobial agents which contain these substances” (Bayer Aktiengesellschaft, priority 1982, dated 1984).
Converted amounts (≈) assume the structure as drawn.

What was measured:
Torulopsis glabrata = assay: Antimycotic in vitro activity, series dilution test (MIC); format: cell-based; details: Nakaseomyces glabratus, 5×10^4 germs/ml, meat extract/glucose broth, 20° C., 24 to 96 hours, read-out: MIC values in γ/ml of nutrient medium, Torulopsis glabrata
Experimental: (§1) Antimycotic in vitro activity Description of the experiment: The in vitro tests were carried out in a series dilution test with germ inocula of an average of 5×10^4 germs/ml of substrate. The nutrient medium was (b) for yeasts: meat extract/glucose broth. The incubation temperature was 20° C. and the duration of incubation was 24 to 96 hours, in the case of yeasts, and 96 hours in the case of dermatophytes and moulds.

Candida albicans = assay: as above; format: cell-based; details: 5×10^4 germs/ml, meat extract/glucose broth, 20° C., 24 to 96 hours, read-out: MIC values in γ/ml of nutrient medium, Candida albicans
Experimental: as §1

Aspergillus fumig. = assay: as above; format: cell-based, Aspergillus fumigatus; details: 5×10^4 germs/ml, Sabouraud's milieu d'épreuve, 20° C., 96 hours, read-out: MIC values in γ/ml of nutrient medium, Aspergillus fumig.
Experimental: as §1, with “(a)” for “(b)”, “dermatophytes and moulds: Sabouraud's milieu d'/e/ preuve and” for “yeasts: meat extract/glucose broth.”

Microsporum canis = assay: as above; format: cell-based; details: 5×10^4 germs/ml, Sabouraud's milieu d'épreuve, 20° C., 96 hours, read-out: MIC values in γ/ml of nutrient medium, Microsporum canis
Experimental: as §1, with “(a)” for “(b)”, “dermatophytes and moulds: Sabouraud's milieu d'/e/ preuve and” for “yeasts: meat extract/glucose broth.”

Trichophyton mentagr. = assay: as above; format: cell-based, Trichophyton mentagrophytes; details: 5×10^4 germs/ml, Sabouraud's milieu d'épreuve, 20° C., 96 hours, read-out: MIC values in γ/ml of nutrient medium, Trichophyton mentagr.
Experimental: as §1, with “(a)” for “(b)”, “dermatophytes and moulds: Sabouraud's milieu d'/e/ preuve and” for “yeasts: meat extract/glucose broth.”

[1] = system: dermatophytes and moulds, yeasts; assay: Antimycotic in vitro activity, overall comparison with known compounds; format: cell-based; details: in vitro series dilution test
Experimental: Antimycotic in vitro activity
Description of the experiment:
The in vitro tests were carried out in a series dilution test with germ inocula of an average of 5×10^4 germs/ml of substrate. The nutrient medium was
(a) for dermatophytes and moulds:
Sabouraud's milieu d'/e/ preuve and
meat extract/glucose broth.
The incubation temperature was 20° C. and the duration of incubation was 24 to 96 hours, in the case of yeasts, and 96 hours in the case of dermatophytes and moulds.

| MIC (Torulopsis glabrata) [µg/mL] | MIC (Candida albicans) [µg/mL] | MIC (Aspergillus fumig.) [µg/mL] | MIC (Microsporum canis) [µg/mL] | MIC (Trichophyton mentagr.) [µg/mL] | SMILES | antimycotic action compared with compounds (A), (B), (C) and (D) [1] |
| --- | --- | --- | --- | --- | --- | --- |
| 16 (≈ 46.9 µM) | 16 (≈ 46.9 µM) | > 64 | 32 (≈ 93.8 µM) | < 1 | CC(C)(C)C(O)C(=Cn1ccnc1)Oc1ccc(Cl)cc1Cl (centres unmarked) [(C), reference compound] |  |
| 16 (≈ 52.3 µM) | 4 (≈ 13.1 µM) | > 64 | 16 (≈ 52.3 µM) | < 1 | CC1(C)CCOC1=C(Oc1ccc(Cl)cc1)n1cncn1 [Example 11] | better antimycotic action |
| < 1 | < 1 | < 1 | < 1 | < 1 | CC1(C)CCOC1=C(Oc1ccc(-c2ccccc2)cc1)n1ccnc1 [Example 7] | better antimycotic action |
| 2 (≈ 6.94 µM) | < 1 | 2 (≈ 6.94 µM) | < 1 | < 1 | CC1(C)CCOC1=C(Oc1ccc(F)cc1)n1ccnc1 [Example 2] | better antimycotic action |
| 2 (≈ 6.56 µM) | 8 (≈ 26.2 µM) | < 1 | < 1 | < 1 | CC1(C)CCOC1=C(Oc1ccc(Cl)cc1)n1ccnc1 [Example 1, (4-chlorophenoxy)-(imidazol-1-yl)-3,3-dimethyltetrahydrofuran-2-ylidene-methane] | better antimycotic action |
| 32 (≈ 93.5 µM) | 32 (≈ 93.5 µM) | 64 (≈ 187 µM) | 64 (≈ 187 µM) | < 1 | CC(C)(C)C(O)C(=Cn1cncn1)Oc1ccc(Cl)cc1Cl (centres unmarked) [(D), reference compound] |  |
| > 64 | 32 (≈ 91.8 µM) | > 64 | 32 (≈ 91.8 µM) | < 1 | CC(C)(C)C(O)C(=Cn1ccnc1)Oc1ccc(-c2ccccc2)cc1 (centres unmarked) [(B), reference compound] |  |
| 64 (≈ 220 µM) | 32 (≈ 110 µM) | > 64 | 64 (≈ 220 µM) | 1 (≈ 3.44 µM) | CC(C)(C)C(O)C(=Cn1ccnc1)Oc1ccc(F)cc1 (centres unmarked) [(A), reference compound] |  |
| < 1 | < 1 | < 1 | < 1 | < 1 | CC1(C)CCOC1=C(Oc1ccc(Cl)cc1Cl)n1ccnc1 [Example 3] | better antimycotic action |
